# Test results published in patent publication US9497963B2, “Methods and compositions for control of gypsy moth, Lymantria dispar” (Simon Fraser University, priority 2008, dated 2016).
# Where two headings read alike, the source gives them in different places. Marks after values point to notes of the source that are not given here.
# Experiments:
# male gypsy moth antenna = assay: Coupled gas chromatographic-electroantennographic detection (GC-EAD); design: species or system Lymantria dispar; conditions: EAD peak size and shape (sharp/broad)
# Excerpt: In GC-EAD assays, the analyte is processed by gas chromatography (GC). The column effluent is split, such that molecules of each chromatographic peak arrive simultaneously at the flame ionization detector of the GC and at an anectomized but otherwise intact insect antenna as the biological detector. This procedure detects specific compounds in the analyte that elicit an electrical potential from the antenna.
# For GC-EAD recordings, an antenna was carefully dislodged from a male moth's head, and the antennal base placed into the opening of a glass capillary electrode (0.58 mm ID×65 mm length) (A-M Systems, Inc., Carlsborg, Wash., USA) filled with saline solution. The tip of the antenna was removed by spring microscissors (Fine Science Tools Inc., North Vancouver, British Columbia, Canada) and then placed into the opening of the recording electrode mounted on a portable micromanipulator and positioned in front of a constant stream of warm air (Praxair Canada Inc., Mississauga, Ontario, Canada) which delivered the GC column eluent. […] Identical retention times of compounds detected by the flame ionization detector of the GC and by the insect antenna allowed assignment of antennal responses to specific compounds in the eluent.
# [1] = tested on: male gypsy moth antenna response to pheromone (+)-1; assay: EAG short-term (STI) and long-term (LTI) inhibition of pheromone signaling (Example 5); design: species or system Lymantria dispar; conditions: for inhibition at 0.001 mg / inhibition at 0.01 mg / inhibition at 0.1 mg / inhibition at 100 µg, 0.1 mg: Lymantria dispar; for inhibition at 0.001 mg / inhibition at 0.01 mg / inhibition at 0.1 mg / Activity (%): short-term inhibition (STI): negative = enhancement; for inhibition at 0.001 mg / inhibition at 0.01 mg / inhibition at 0.1 mg: read-out: Activity (%): short-term inhibition (STI); for inhibition at 100 µg, 0.1 mg: read-out: Activity (%): long-term inhibition (LTI)
# Protocol: The puffs are numbered i-vi and were: i=air, ii=pure pheromone (+)-disparlure, (+)-1, (100 ng), iii-v=disparlure mixed with the test compound, the latter at three different doses, vi=pure (+)-1. Depolarizations from the resting potential are labeled d; hyperpolarizations seen during the recovery phase after a puff are labeled r. Subscripts refer to the puff number. FIG. 5A. Typical trace for compound 3c{2,3}. FIG. 5B. Typical trace for compound 3a{4,4}.
# For other compounds, EAG traces were recorded as follows: a fully dislodged antenna from a male gypsy moth was mounted on the end of a reference electrode (a glass capillary with a silver wire, filled with buffered saline: 5 mM NaH2PO4, 10 mM Na2SO4, 4.5 mM KHCO3, 18 mM MgCl2, 4 mM CaCl2, 6 mM KCl, the pH is adjusted to 6.8 using 5 mM Na2HPO4). The tip of the antenna was severed with microscissors and placed in the recording electrode, which was mounted on a micromanipulator. A constant stream of air, that had been purified (charcoal filter), was blown over the antenna at a rate of 300 mL/min. Test samples were delivered through a stimulus delivery tube with a side opening 2 cm from the distal opening. The proximal end of the delivery tube was connected to a controlled stimulus delivery apparatus (Stimulus controller CS-05 Syntech Research and Equipment, NL 1200BM, Hilversum, The Netherlands). The distal end of the delivery tube pointed at the antenna (1 cm from the antenna). The side opening was connected to a cartridge fashioned from a Pasteur pipette which contained a small filter paper (Whatman No. 1) with the stimulus. These pipette cartridges could be prepared a few days in advance and stored at −80° C. wrapped in Al foil and in sealable plastic bags. Sample cartridges were mounted once they had reached room temperature. The stimulus delivery apparatus delivered a second stream of air (a puff) through the Pasteur pipette at a velocity of 600 mL/min, at a specified point in time, for 0.3 s. Receptor potentials of the antennae in response to test stimuli were recorded with a Syntech IDAC probe, amplifier and interfaced board, and were analyzed with EAG Syntech Software Version 2.4 (1996). See FIG. 4 for a representative EAG trace. The EAG traces were evaluated as follows (see FIG. 5).
# The net depolarizations, d(net) (in mV), of puffs ii-vi,d(sample), (corrected for the depolarization with clean air, d(air)) d(net)=d(sample)−d(air) (Eq. 1)
# The percentage short-term inhibition for each compound (STI(compound)) of puffs iii-v, relative to the first pure pheromone puff (ii) STI(compound)=100×(d(net)(ii)−d(net)(compound))/d(net)(ii) (Eq. 2)
# c) the percentage long-term inhibition for each compound (LTI(compound)) of the pure pheromone puff that followed the last mixed puff (vi) relative to the first pure pheromone puff (ii) LTI(compound)=100×(d(net)(ii)−d(net)(vi))/d(net)(ii) (Eq. 3)
# The compounds we tested gave weak or no olfactory responses by themselves in electroantennogram (EAG) experiments. The EAG trace reflects the change in the potential across the antenna when an air puff with an odorant is passed over the antenna. To understand the agonistic or antagonistic effect of the compounds on pheromone responses by male moth antennae, four types of EAG experiment were conducted. First, the response of the antenna elicited by a stimulus of pure (+)-1 was compared to the responses elicited by blends of (+)-1 with the test compound (FIG. 5). […] This effect was termed short-term inhibition (STI). […] Second, the time decay and dose responses for LTI activities were studied. Third, the strongest inhibitors were tested for their ability to cause LTI by themselves.
# This experiment explored the agonistic or antagonistic activity of the synthetic aromatic compounds (Scheme 1 and eugenol and alkyl eugenols) with the gypsy moth pheromone (+)-1. […]
# [2] = mixed plume (+)-1 100 ng + compound 1 μg, mean ± S.E.
# [3] = mixed plume (+)-1 100 ng + compound 10 μg, mean ± S.E.
# [4] = mixed plume (+)-1 100 ng + compound 100 μg (puff v), mean ± S.E.
# [5] = pure (+)-1 100 ng plume following mixed plume with 100 μg compound, mean ± S.E.
SMILES,GC-EAD activity (male gypsy moth antenna),"inhibition at 0.001 mg [1, 2] [%]","inhibition at 0.01 mg [1, 3] [%]","inhibition at 0.1 mg [1, 4] [%]","inhibition at 100 µg, 0.1 mg [1, 5] [%]","Activity (%): short-term inhibition (STI) [1, 2]","Activity (%): short-term inhibition (STI) [1, 3]","Activity (%): short-term inhibition (STI) [1, 4]","Activity (%): long-term inhibition (LTI) [1, 5]","inhibition at 100 µg, 0.1 mg [1] [%]",short-term effect on antennal pheromone response (in words) [1],long-term inhibition (LTI) activity (in words) [1]
"C=CCOc1ccc(O)cc1 [2c{6}, 4-Allyloxy phenol]",None,19 ± 10,42 ± 8,46 ± 10,24 ± 8,–,–,–,–,–,–,–
"CC(C)CCOc1cccc(OCCC(C)C)c1 [3b{5,5}, 1,3-Di-(3-methyl-butyloxy) benzene]",None,41 ± 13,-38 ± 41,-51 ± 51,9 ± 9,–,–,–,–,–,–,–
C=CCOc1cccc(O)c1 [2b{6}],None,–,–,–,–,24 ± 23 (7) %,28 ± 20 (7) %,5 ± 32 (7) %,1 ± 7 (7) %,–,–,–
"C=CCc1ccc(O)c(OC)c1 [eugenol, 2-methoxy-4-(2-propenyl) phenol, reference compound]",None,–,–,–,–,–,–,–,–,14 ± 10,–,–
"CC(C)CCOc1ccccc1OCCC(C)C [3a{5,5}, 1,2-Di-(3-methyl-butyloxy) benzene]",None,-77 ± 58,-55 ± 67,-105 ± 81,0,–,–,–,–,–,–,–
C=CCc1ccc(OCC)c(OC)c1 [Et eugenol],None,3 ± 27,19 ± 18,-121 ± 15,20 ± 3,–,–,–,–,–,–,–
"CC(C)CCOc1ccccc1O [2a{5}, 2-(3-Methyl-butyloxy) phenol]",None,22 ± 8,-44 ± 26,-37 ± 33,6 ± 6,–,–,–,–,–,slightly agonistic,–
"CCCOc1cccc(OCCC)c1 [3b{3,3}, 1,3-Dipropoxy benzene]",None,36 ± 11,1 ± 26,-2 ± 34,45 ± 12,–,–,–,–,–,–,–
"CCCCOc1ccc(O)cc1 [2c{4}, 4-Butoxy phenol]",None,12 ± 37,38 ± 11,-122 ± 84,26 ± 13,–,–,–,–,–,short-term enhancements,–
"CCOc1cccc(OCC)c1 [3b{2,2}, 1,3-Diethoxy benzene]",Trace,-100 ± 51,-12 ± 70,63 ± 65,39 ± 6,–,–,–,–,–,–,–
COc1ccccc1O [2a{1}],None,–,–,–,–,26 ± 14 (13)^e %,−27 ± 24 (13) %,9 ± 11 (13) %,−13 ± 9 (13) %,–,–,–
C=CCc1ccc(OCCCC)c(OC)c1 [Bu eugenol],None,–,–,–,–,39 ± 17 (6) %,−68 ± 29 (6) %,−116 ± 24 (6) %,7 ± 4 (6) %,–,–,–
"C=CCOc1ccc(OCC=C)cc1 [3c{6,6}, 1,4-Diallyloxy benzene]",Trace,-6 ± 10,45 ± 6,41 ± 8,4 ± 6,–,–,–,–,–,–,–
"C=CCOc1ccccc1OCC=C [3a{6,6}, 1,2-Diallyloxy benzene]",None,32 ± 16,16 ± 24,-27 ± 48,17 ± 28,–,–,–,–,–,–,–
"CCCCOc1cccc(OCCCC)c1 [3b{4,4}, 1,3-Dibutoxy benzene]",None,4 ± 45,-72 ± 91,-42 ± 93,8 ± 9,–,–,–,–,–,–,–
"CCOc1cccc(O)c1 [2b{2}, 3-Ethoxy phenol]",None,4 ± 20,0,44 ± 18,-3 ± 5,–,–,–,–,–,–,–
"C=CCOc1cccc(OCCC)c1 [3b{3,6}, 1-allyloxy-3-propoxybenzene]",None,-85 ± 30,-85 ± 80,-96 ± 98,48 ± 7,–,–,–,–,–,–,most active long-term inhibitor
"C=CCOc1cccc(OCCCC)c1 [3b{4,6}, 1-allyloxy-3-n-butoxybenzene]",None,-66 ± 43,-101 ± 76,8 ± 46,27 ± 12,–,–,–,–,–,–,–
"CC(C)CCOc1cccc(O)c1 [2b{5}, 3-(3-Methyl-butyloxy) phenol]",None,-87 ± 63,-111 ± 78,-9 ± 58,4 ± 7,–,–,–,–,–,–,–
"CCOc1ccccc1O [2a{2}, 2-Ethoxy phenol]",None,42 ± 12,26 ± 12,58 ± 11,6 ± 4,–,–,–,–,–,–,–
"CCCCOc1ccccc1O [2a{4}, 2-Butoxy phenol]",None,26 ± 12,21 ± 11,50,5 ± 6,–,–,–,–,–,–,–
"C=CCOc1cccc(OCC=C)c1 [3b{6,6}, 1,3-Diallyloxy benzene]",None,11 ± 18,10 ± 22,-34 ± 41,33 ± 12,–,–,–,–,–,–,–
"CCCOc1ccccc1O [2a{3}, 2-Propoxy phenol]",None,-26 ± 14,32 ± 9,46 ± 13,18 ± 5,–,–,–,–,–,–,–
"C=CCOc1ccccc1O [2a{6}, 2-Allyloxy phenol]",None,-63 ± 62,-33 ± 40,-31 ± 71,16 ± 8,–,–,–,–,–,–,–
C=CCc1ccc(OCCC(C)C)c(OC)c1 [iPent eugenol],None,–,–,–,–,11 ± 33 (6) %,−98 ± 26 (6) %,−106 ± 24 (6) %,5 ± 8 (6) %,–,–,–
